Measured values: article PMC7922224, “Searching for Small Molecules as Antibacterials: Non-Cytotoxic Diarylureas Analogues of Triclocarban” (Antibiotics, 2021)
Converted amounts (≈) assume the structure as drawn.

tested on: E. faecalis ATCC 29212; assay: MIC by broth microdilution (CLSI); format: cell-based, Enterococcus faecalis; conditions: Enterococcus faecalis, ATCC29212; Gram-positive; 37 °C, 24 h, Mueller Hinton Broth; read-out: MIC E.f. 29212
Experimental: (§1) The in vitro Minimum Inhibitory Concentrations (MICs, μg/mL) were determined by the broth microdilution method according to the Clinical Laboratory Standards Institute (CLSI) guidelines. MIC values were recorded as the lowest concentration of compounds at which there was no optically detectable microorganism growth and evaluated by comparing the growth in each well visually with that of the growth in the control well for bacteria. All compounds were dissolved in dimethyl sulfoxide (DMSO) and were tested in a final concentration range of from 512 to 2 µg/mL. MICs for the reference antibiotic norfloxacin against quality control strains were used to confirm the validity of the screen. According to the CLSI guidelines, diphenylureas were tested in vitro against a panel of Gram-positive and Gram-negative bacteria belonging to the ATCC collection using the standard microdilution test for the determination of MICs. MICs of the synthesised compounds along with the parent compound TCC and with the standard antibiotic norfloxacin are listed in Table 1. The compounds were also analyzed in terms of molecular mass, logP (Table 1), number of hydrogen-bond donors and number of hydrogen-bond acceptors, and most of them obeyed Lipinski’s rule. […] Based on our results, it seems that the 3,4-dichloro-disubstitution pattern, which is present in TCC, is not crucial for activity. […] Moreover, the activity against Enterococcus faecalis was interesting. E. faecalis is a ubiquitous member of the healthy human gut microbiota and also a common opportunistic pathogen and leading cause of nosocomial infections. It has a high incidence for most infections, and the case numbers have been increasing in recent decades, likely due to its greater ability to persist in healthcare facilities and its higher abundance in the human gut microbiome. Kim et al. (2016) compared the bactericidal effects of plain and antibacterial soap containing 0.3% TCC. The authors found no significative difference between the effects of plain and medicated soap at either temperature, with the only exception of E. faecalis ATCC 19433 at 40 °C.
(§2) MICs (μg/mL) were determined by the broth microdilution method, using 96-well plates, according to CLSI [26]. Stock solutions of the investigated compounds were obtained by setting the concentration at the maximum possible value. Then, the stock solutions were diluted 1:10 with Mueller Hinton Broth (Oxoid, Italy). Afterwards, twofold serial dilutions in the suitable test medium were carried out to obtain a set of concentrations from 512 to 2 µg/mL in the wells. To obtain the stock solution, DMSO (100%) was employed as diluent. The following bacteria strains, available as freeze-dried discs, belonging to the ATCC collection, were used: Gram-positive: S. aureus ATCC 29213, 6538, and 6538P, E. faecalis ATCC 29212; Gram-negative: K. pneuomoniae ATCC 13883, P. aeruginosa ATCC 27853. To conserve the purity of cultures and to enable their reproducibility, cryovials of all microbial strains in the medium were set up and stored at −80 °C. Pre-cultures of each bacterial strain were prepared in Mueller Hinton Broth (MHB) and incubated at 37 °C for 3–5 h. The turbidity of bacterial cell suspension was calibrated to 0.5 McFarland Standard by the spectrophotometric method (OD 625 nm 0.08–0.10), as indicated in the CLSI protocol M7-A9 and, further, the standardized suspension was diluted (1:100) with MHB to reach 1–2 × 10^6 CFU/mL. All wells were seeded with 100 µl of the mentioned final inoculum, and some wells contained only inoculated broth as control growth. […] The MICs were determined by using the assay repeated twice in triplicate. Throughout the study, norfloxacin was used as reference antibiotic. Appropriate controls involved norfloxacin for bacteria as international reference standard. […]

Compound	MIC
Cc1ccc(NC(=O)Nc2ccccc2C)cc1 [1ag, 1-(2-Methylphenyl)-3-(4-methylphenyl)urea]	128 µg/mL (≈ 533 µM)
O=C(Nc1ccccc1)Nc1ccccc1 [1ff (NCC), 1,3-Diphenylurea]	> 256 µg/mL
O=C(Nc1ccccc1)Nc1ccc(Cl)cc1 [1cf (MCC), 1-(4-Chlorophenyl)-3-phenylurea]	64 µg/mL (≈ 259 µM)
Cc1ccc(NC(=O)Nc2ccccc2)cc1 [1af, 1-(4-Methylphenyl)-3-phenylurea]	64 µg/mL (≈ 283 µM)
COc1ccc(NC(=O)Nc2c(C)cccc2C)cc1 [1bd, 1-(4-Methoxyphenyl)-3-(2,6-dimethylphenyl)urea]	128 µg/mL (≈ 473 µM)
COc1ccc(NC(=O)Nc2ccccc2)cc1 [1df, 1-(4-Methoxyphenyl)-3-phenylurea]	128 µg/mL (≈ 528 µM)
Cc1ccccc1NC(=O)Nc1ccc(Cl)c(Cl)c1 [1eg, 1-(3,4-Dichlorophenyl)-3-(2-methylphenyl)urea]	64 µg/mL (≈ 217 µM)
O=C(Nc1ccc(Cl)cc1)Nc1ccc(Cl)cc1 [1cc (DCC), 1-(4-Chlorophenyl)-3-(4-chlorophenyl)urea]	128 µg/mL (≈ 455 µM)

same assay, conditions: Gram-positive; 37 °C, 24 h, Mueller Hinton Broth

Compound	MIC E.f. 29212
1-(3-Chloro-4-fluorophenyl)-3-(2-methylphenyl)urea [1gk]	64 µg/mL

tested on: E. coli 25922; assay: MIC by broth microdilution (CLSI); format: cell-based; conditions: Escherichia coli, Gram-negative, 37 °C, 24 h, Mueller Hinton Broth

Compound	MIC
Cc1ccc(NC(=O)Nc2ccccc2C)cc1 [1ag, 1-(2-Methylphenyl)-3-(4-methylphenyl)urea]	> 256 µg/mL
O=C(Nc1ccccc1)Nc1ccccc1 [1ff (NCC), 1,3-Diphenylurea]	> 256 µg/mL
O=C(Nc1ccccc1)Nc1ccc(Cl)cc1 [1cf (MCC), 1-(4-Chlorophenyl)-3-phenylurea]	> 256 µg/mL
Cc1ccc(NC(=O)Nc2ccccc2)cc1 [1af, 1-(4-Methylphenyl)-3-phenylurea]	> 256 µg/mL
COc1ccc(NC(=O)Nc2c(C)cccc2C)cc1 [1bd, 1-(4-Methoxyphenyl)-3-(2,6-dimethylphenyl)urea]	> 256 µg/mL
COc1ccc(NC(=O)Nc2ccccc2)cc1 [1df, 1-(4-Methoxyphenyl)-3-phenylurea]	> 256 µg/mL
Cc1ccccc1NC(=O)Nc1ccc(Cl)c(Cl)c1 [1eg, 1-(3,4-Dichlorophenyl)-3-(2-methylphenyl)urea]	> 256 µg/mL
O=C(Nc1ccc(Cl)cc1)Nc1ccc(Cl)cc1 [1cc (DCC), 1-(4-Chlorophenyl)-3-(4-chlorophenyl)urea]	> 256 µg/mL

tested on: K. pneumoniae ATCC 13883; assay: MIC by broth microdilution (CLSI); format: cell-based; conditions: Gram-negative; 37 °C, 24 h, Mueller Hinton Broth
Experimental: as §1, §2

Compound	MIC K.p. 13883
1-(3-Chloro-4-fluorophenyl)-3-(2-methylphenyl)urea [1gk]	256 µg/mL

same assay, conditions: Klebsiella pneumoniae, ATCC13883; Gram-negative; 37 °C, 24 h, Mueller Hinton Broth; read-out: MIC K.p. 13883

Compound	MIC
Cc1ccc(NC(=O)Nc2ccccc2C)cc1 [1ag, 1-(2-Methylphenyl)-3-(4-methylphenyl)urea]	> 256 µg/mL
O=C(Nc1ccccc1)Nc1ccccc1 [1ff (NCC), 1,3-Diphenylurea]	> 256 µg/mL
O=C(Nc1ccccc1)Nc1ccc(Cl)cc1 [1cf (MCC), 1-(4-Chlorophenyl)-3-phenylurea]	> 256 µg/mL
Cc1ccc(NC(=O)Nc2ccccc2)cc1 [1af, 1-(4-Methylphenyl)-3-phenylurea]	> 256 µg/mL
COc1ccc(NC(=O)Nc2c(C)cccc2C)cc1 [1bd, 1-(4-Methoxyphenyl)-3-(2,6-dimethylphenyl)urea]	> 256 µg/mL
COc1ccc(NC(=O)Nc2ccccc2)cc1 [1df, 1-(4-Methoxyphenyl)-3-phenylurea]	> 256 µg/mL
Cc1ccccc1NC(=O)Nc1ccc(Cl)c(Cl)c1 [1eg, 1-(3,4-Dichlorophenyl)-3-(2-methylphenyl)urea]	> 256 µg/mL
O=C(Nc1ccc(Cl)cc1)Nc1ccc(Cl)cc1 [1cc (DCC), 1-(4-Chlorophenyl)-3-(4-chlorophenyl)urea]	> 256 µg/mL

tested on: P. aeruginosa ATCC 27853; assay: MIC by broth microdilution (CLSI); format: cell-based; conditions: Gram-negative; 37 °C, 24 h, Mueller Hinton Broth
Experimental: as §1, §2

Compound	MIC P. a. 27853
1-(3-Chloro-4-fluorophenyl)-3-(2-methylphenyl)urea [1gk]	256 µg/mL

same assay, conditions: Pseudomonas aeruginosa, ATCC27853; Gram-negative; 37 °C, 24 h, Mueller Hinton Broth

Compound	MIC
Cc1ccc(NC(=O)Nc2ccccc2C)cc1 [1ag, 1-(2-Methylphenyl)-3-(4-methylphenyl)urea]	> 256 µg/mL
O=C(Nc1ccccc1)Nc1ccccc1 [1ff (NCC), 1,3-Diphenylurea]	> 256 µg/mL
O=C(Nc1ccccc1)Nc1ccc(Cl)cc1 [1cf (MCC), 1-(4-Chlorophenyl)-3-phenylurea]	> 256 µg/mL
Cc1ccc(NC(=O)Nc2ccccc2)cc1 [1af, 1-(4-Methylphenyl)-3-phenylurea]	> 256 µg/mL
COc1ccc(NC(=O)Nc2c(C)cccc2C)cc1 [1bd, 1-(4-Methoxyphenyl)-3-(2,6-dimethylphenyl)urea]	> 256 µg/mL
COc1ccc(NC(=O)Nc2ccccc2)cc1 [1df, 1-(4-Methoxyphenyl)-3-phenylurea]	256 µg/mL (≈ 1060 µM)
Cc1ccccc1NC(=O)Nc1ccc(Cl)c(Cl)c1 [1eg, 1-(3,4-Dichlorophenyl)-3-(2-methylphenyl)urea]	> 256 µg/mL
O=C(Nc1ccc(Cl)cc1)Nc1ccc(Cl)cc1 [1cc (DCC), 1-(4-Chlorophenyl)-3-(4-chlorophenyl)urea]	> 256 µg/mL

tested on: Staphylococcus aureus; assay: MIC by broth microdilution, S. aureus (strain not given); format: cell-based; conditions: strain not specified (best value among the ATCC strains), read-out: MIC against S. aureus
Experimental: as §1, §2

Compound	MIC
COc1ccc(NC(=O)Nc2c(C)cccc2C)cc1 [1bd, 1-(4-Methoxyphenyl)-3-(2,6-dimethylphenyl)urea]	16 µg/mL (≈ 59.2 µM)

tested on: S. aureus ATCC 29213; assay: MIC by broth microdilution (CLSI); format: cell-based, Staphylococcus aureus; conditions: Gram-positive; 37 °C, 24 h, Mueller Hinton Broth
Experimental: as §1, §2

Compound	MIC S.a. 29213
1-(3-Chloro-4-fluorophenyl)-3-(2-methylphenyl)urea [1gk]	256 µg/mL

same assay, conditions: Staphylococcus aureus, ATCC29213; Gram-positive; 37 °C, 24 h, Mueller Hinton Broth

Compound	MIC
Cc1ccc(NC(=O)Nc2ccccc2C)cc1 [1ag, 1-(2-Methylphenyl)-3-(4-methylphenyl)urea]	256 µg/mL (≈ 1070 µM)
O=C(Nc1ccccc1)Nc1ccccc1 [1ff (NCC), 1,3-Diphenylurea]	> 256 µg/mL
O=C(Nc1ccccc1)Nc1ccc(Cl)cc1 [1cf (MCC), 1-(4-Chlorophenyl)-3-phenylurea]	128 µg/mL (≈ 519 µM)
Cc1ccc(NC(=O)Nc2ccccc2)cc1 [1af, 1-(4-Methylphenyl)-3-phenylurea]	128 µg/mL (≈ 566 µM)
COc1ccc(NC(=O)Nc2c(C)cccc2C)cc1 [1bd, 1-(4-Methoxyphenyl)-3-(2,6-dimethylphenyl)urea]	> 256 µg/mL
COc1ccc(NC(=O)Nc2ccccc2)cc1 [1df, 1-(4-Methoxyphenyl)-3-phenylurea]	256 µg/mL (≈ 1060 µM)
Cc1ccccc1NC(=O)Nc1ccc(Cl)c(Cl)c1 [1eg, 1-(3,4-Dichlorophenyl)-3-(2-methylphenyl)urea]	256 µg/mL (≈ 867 µM)
O=C(Nc1ccc(Cl)cc1)Nc1ccc(Cl)cc1 [1cc (DCC), 1-(4-Chlorophenyl)-3-(4-chlorophenyl)urea]	256 µg/mL (≈ 911 µM)

tested on: S. aureus ATCC 6538; assay: MIC by broth microdilution (CLSI); format: cell-based, Staphylococcus aureus; conditions: Gram-positive; 37 °C, 24 h, Mueller Hinton Broth
Experimental: as §1, §2

Compound	MIC S.a. 6538
1-(3-Chloro-4-fluorophenyl)-3-(2-methylphenyl)urea [1gk]	128 µg/mL

same assay, conditions: Staphylococcus aureus, ATCC6538; Gram-positive; 37 °C, 24 h, Mueller Hinton Broth

Compound	MIC
Cc1ccc(NC(=O)Nc2ccccc2C)cc1 [1ag, 1-(2-Methylphenyl)-3-(4-methylphenyl)urea]	128 µg/mL (≈ 533 µM)
O=C(Nc1ccccc1)Nc1ccccc1 [1ff (NCC), 1,3-Diphenylurea]	128 µg/mL (≈ 603 µM)
O=C(Nc1ccccc1)Nc1ccc(Cl)cc1 [1cf (MCC), 1-(4-Chlorophenyl)-3-phenylurea]	64 µg/mL (≈ 259 µM)
Cc1ccc(NC(=O)Nc2ccccc2)cc1 [1af, 1-(4-Methylphenyl)-3-phenylurea]	64 µg/mL (≈ 283 µM)
COc1ccc(NC(=O)Nc2c(C)cccc2C)cc1 [1bd, 1-(4-Methoxyphenyl)-3-(2,6-dimethylphenyl)urea]	32 µg/mL (≈ 118 µM)
COc1ccc(NC(=O)Nc2ccccc2)cc1 [1df, 1-(4-Methoxyphenyl)-3-phenylurea]	64 µg/mL (≈ 264 µM)
Cc1ccccc1NC(=O)Nc1ccc(Cl)c(Cl)c1 [1eg, 1-(3,4-Dichlorophenyl)-3-(2-methylphenyl)urea]	64 µg/mL (≈ 217 µM)
O=C(Nc1ccc(Cl)cc1)Nc1ccc(Cl)cc1 [1cc (DCC), 1-(4-Chlorophenyl)-3-(4-chlorophenyl)urea]	128 µg/mL (≈ 455 µM)

tested on: S. aureus ATCC 6538P; assay: MIC by broth microdilution (CLSI); format: cell-based, Staphylococcus aureus; conditions: Gram-positive; 37 °C, 24 h, Mueller Hinton Broth
Experimental: as §1, §2

Compound	MIC S.a. 6538P
1-(3-Chloro-4-fluorophenyl)-3-(2-methylphenyl)urea [1gk]	64 µg/mL

same assay, conditions: Staphylococcus aureus, ATCC6538P; Gram-positive; 37 °C, 24 h, Mueller Hinton Broth

Compound	MIC
Cc1ccc(NC(=O)Nc2ccccc2C)cc1 [1ag, 1-(2-Methylphenyl)-3-(4-methylphenyl)urea]	256 µg/mL (≈ 1070 µM)
O=C(Nc1ccccc1)Nc1ccccc1 [1ff (NCC), 1,3-Diphenylurea]	64 µg/mL (≈ 302 µM)
O=C(Nc1ccccc1)Nc1ccc(Cl)cc1 [1cf (MCC), 1-(4-Chlorophenyl)-3-phenylurea]	128 µg/mL (≈ 519 µM)
Cc1ccc(NC(=O)Nc2ccccc2)cc1 [1af, 1-(4-Methylphenyl)-3-phenylurea]	128 µg/mL (≈ 566 µM)
COc1ccc(NC(=O)Nc2c(C)cccc2C)cc1 [1bd, 1-(4-Methoxyphenyl)-3-(2,6-dimethylphenyl)urea]	16 µg/mL (≈ 59.2 µM)
COc1ccc(NC(=O)Nc2ccccc2)cc1 [1df, 1-(4-Methoxyphenyl)-3-phenylurea]	128 µg/mL (≈ 528 µM)
Cc1ccccc1NC(=O)Nc1ccc(Cl)c(Cl)c1 [1eg, 1-(3,4-Dichlorophenyl)-3-(2-methylphenyl)urea]	128 µg/mL (≈ 434 µM)
O=C(Nc1ccc(Cl)cc1)Nc1ccc(Cl)cc1 [1cc (DCC), 1-(4-Chlorophenyl)-3-(4-chlorophenyl)urea]	256 µg/mL (≈ 911 µM)
